# According to patent publication US9115086B2, “Therapeutic compositions and related methods of use” (AGIOS PHARMACEUTICALS, INC., priority 2009, dated 2015):
# Target: T1, PKM2 (Homo sapiens, UniProt P14618)
# T1 construct: PKM2 stock enzyme solution was diluted in Reaction Buffer
# Assay: PKM2 Assay (activation, LDH-coupled NADH absorbance at 340 nm)
# Type: biochemical
# Conditions: activation of PKM2
# Method: • PKM2 stock enzyme solution was diluted in Reaction Buffer • 2 μL of compound was added into each well first, and then 180 μL of the Reaction Mix was added. • Reaction mixture with compound (without ADP) were incubated for 30 minutes at 4° C. • Plates were re-equilibrated to room temperature prior to adding 20 μL ADP to initiate the reaction. • Reaction progress was measured as changes in absorbance at 340 nm wavelength at room temperature (25° C.) Reaction Mix: PKM2 (50 ng/well), ADP (0.7 mM), PEP (0.15 mM), NADH (180 μM), LDH (2 units) in Reaction Buffer Reaction Buffer: 100 mM KCl, 50 mM Tris pH 7.5, 5 mM MgCl2, 1 mM DTT, 0.03% BSA.
# T1 sequence (P14618 whole entry): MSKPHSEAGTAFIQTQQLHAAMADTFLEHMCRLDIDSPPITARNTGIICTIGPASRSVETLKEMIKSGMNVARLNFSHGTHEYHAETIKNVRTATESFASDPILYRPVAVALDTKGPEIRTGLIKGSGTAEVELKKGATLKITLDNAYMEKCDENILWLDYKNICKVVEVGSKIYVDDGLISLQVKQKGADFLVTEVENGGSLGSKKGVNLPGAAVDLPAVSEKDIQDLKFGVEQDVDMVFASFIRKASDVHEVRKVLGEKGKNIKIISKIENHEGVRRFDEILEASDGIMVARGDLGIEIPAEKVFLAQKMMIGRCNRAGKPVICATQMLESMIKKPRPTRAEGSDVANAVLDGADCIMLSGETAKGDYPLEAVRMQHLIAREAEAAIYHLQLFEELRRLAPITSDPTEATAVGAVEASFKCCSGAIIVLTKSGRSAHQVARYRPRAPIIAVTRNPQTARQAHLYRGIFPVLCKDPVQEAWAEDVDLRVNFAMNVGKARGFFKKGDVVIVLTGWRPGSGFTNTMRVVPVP
row,EC50 [µM],SMILES
1,< 10,O=C(COc1ccc(-n2cnnn2)cc1)N1CCN(S(=O)(=O)c2ccc3ccccc3c2)CC1
2,< 10,O=C(COc1ccccc1)N1CCN(S(=O)(=O)c2ccc3ccccc3c2)CC1
3,< 10,Cc1ccc(OCC(=O)N2CCN(S(=O)(=O)c3ccc4ccccc4c3)CC2)cc1
4,< 10,COC(=O)c1ccc(OCC(=O)N2CCN(S(=O)(=O)c3ccc4ccccc4c3)CC2)cc1
5,10 to 100,CC(C)(C)OCC(=O)N1CCN(S(=O)(=O)c2ccc3sc(=O)sc3c2)CC1
6,< 10,O=C(C1CCCCC1)N1CCN(S(=O)(=O)c2ccc3ccccc3c2)CC1
7,< 10,O=C(C1CCCCC1)N1CCN(S(=O)(=O)c2cccc(C(F)(F)F)c2)CC1
8,10 to 100,O=C(COc1ccc(-n2cnnn2)cc1)N1CCN(S(=O)(=O)c2cccn2-c2ncc(C(F)(F)F)cc2Cl)CC1
9,< 10,O=C(OCc1ccccc1)N1CCN(S(=O)(=O)c2ccc3ccccc3c2)CC1
10,> 100,O=C(Cc1ccc(C(F)(F)F)cc1)N1CCN(S(=O)(=O)c2cc(C(F)(F)F)cc(C(F)(F)F)c2)CC1
11,10 to 100,O=C(Cc1ccc(C(F)(F)F)cc1)N1CCN(S(=O)(=O)c2cc(Cl)cc(Cl)c2)CC1
12,< 10,O=C(CCc1ccccc1)N1CCN(S(=O)(=O)c2ccc3ccccc3c2)CC1
13,< 10,O=C(OCc1ccccc1)N1CCN(S(=O)(=O)c2ccccc2)CC1
14,< 10,O=C(CCc1ccc(C(F)(F)F)cc1)N1CCN(S(=O)(=O)c2ccc3ccccc3c2)CC1
15,< 10,O=C(COc1ccccc1)N1CCN(S(=O)(=O)c2ccccc2)CC1
16,< 10,O=C(COc1ccc(-n2cnnn2)cc1)N1CCN(S(=O)(=O)c2c(F)cccc2F)CC1
17,10 to 100,COc1ccc(Cl)cc1S(=O)(=O)N1CCN(C(=O)COc2ccc(-n3cnnn3)cc2)CC1
18,< 10,O=C(COc1ccc(-n2cnnn2)cc1)N1CCN(S(=O)(=O)c2ccccc2)CC1
19,< 10,O=C(COc1ccc(-n2cnnn2)cc1)N1CCN(S(=O)(=O)c2ccc(F)cc2)CC1
20,< 10,O=C(COc1ccc(-n2cnnn2)cc1)N1CCN(S(=O)(=O)c2cccc3ccccc23)CC1
21,< 10,Cc1ccc(SCC(=O)N2CCN(S(=O)(=O)c3ccc4ccccc4c3)CC2)cc1

row,EC50 [µM],SMILES
1,< 10,O=C(CSc1ccc(Cl)cc1Cl)N1CCN(S(=O)(=O)c2ccc3ccccc3c2)CC1
2,< 10,O=C(CSc1ccc(F)cc1)N1CCN(S(=O)(=O)c2ccc3ccccc3c2)CC1
3,10 to 100,O=C(COc1ccc(-n2cnnn2)cc1)N1CCN(S(=O)(=O)c2cccc3cccnc23)CC1
4,< 10,O=C(COCc1ccccc1)N1CCN(S(=O)(=O)c2ccc3ccccc3c2)CC1
5,< 10,O=C(C1CC1c1ccc(C(F)(F)F)cc1)N1CCN(S(=O)(=O)c2ccc3ccccc3c2)CC1 (stereo not drawn)
6,< 10,O=C(C1CC1c1ccc(C(F)(F)F)cc1)N1CCN(S(=O)(=O)c2cc(C3CC3)cc(C(F)(F)F)c2)CC1 (stereo not drawn)
7,< 10,O=C(C1CC1c1ccc(C(F)(F)F)cc1)N1CCN(S(=O)(=O)c2ccc3c(c2)OCCO3)CC1 (stereo not drawn)
8,< 10,O=C(Cc1ccc(C(F)(F)F)cc1)N1CCN(S(=O)(=O)c2ccc3ccccc3c2)CC1
9,< 10,O=C(CC1CC1)N1CCN(S(=O)(=O)c2ccc3ccccc3c2)CC1
10,< 10,O=C(COc1cccnc1)N1CCN(S(=O)(=O)c2ccc3ccccc3c2)CC1
11,< 10,O=C(CNc1ccccc1)N1CCN(S(=O)(=O)c2ccc3ccccc3c2)CC1
12,< 10,O=C(COc1ccccc1)N1CCN(S(=O)(=O)c2ccc(F)cc2)CC1
13,< 10,O=C(OCc1cccnc1)N1CCN(S(=O)(=O)c2ccc3ccccc3c2)CC1
14,< 10,Cc1cc(C)cc(OCC(=O)N2CCN(S(=O)(=O)c3ccc4ccccc4c3)CC2)c1
15,< 10,COc1ccc(OCC(=O)N2CCN(S(=O)(=O)c3ccc4ccccc4c3)CC2)cc1
16,< 10,O=C(COc1ccccc1)N1CCN(S(=O)(=O)c2cccc3ccccc23)CC1
17,10 to 100,CN1C(=O)COc2ccc(S(=O)(=O)N3CCN(C(=O)COc4ccccc4)CC3)cc21
18,10 to 100,CN1C(=O)C(=O)c2cc(S(=O)(=O)N3CCN(C(=O)COc4ccccc4)CC3)ccc21
19,> 100,O=C(COc1ccc(C(F)(F)F)cc1)N1CCN(S(=O)(=O)c2ccc3c(c2)OCCO3)CC1
20,< 10,O=C(COc1ccccc1)N1CCN(S(=O)(=O)c2cccc3cccnc23)CC1
21,< 10,O=C(Cc1ccc(C(F)(F)F)cc1)N1CCN(S(=O)(=O)c2cccc3ccccc23)CC1
